Laboratory results as given in ChEMBL document CHEMBL5291721, “A preclinical secondary pharmacology resource illuminates target-adverse drug reaction associations of marketed drugs” (Nat Commun, 2023).
Where a SMILES comes first, the peptide text is derived from it.

How the values were obtained:
Cannabinoid receptor 1 = Cannabinoid receptor 1 (Homo sapiens, UniProt P21554); assay type: functional, cell-based
[1] = biological target: T1, 5-hydroxytryptamine receptor 1A (Homo sapiens, UniProt P08908); assay type: functional, cell-based
T1 sequence (P08908 whole entry): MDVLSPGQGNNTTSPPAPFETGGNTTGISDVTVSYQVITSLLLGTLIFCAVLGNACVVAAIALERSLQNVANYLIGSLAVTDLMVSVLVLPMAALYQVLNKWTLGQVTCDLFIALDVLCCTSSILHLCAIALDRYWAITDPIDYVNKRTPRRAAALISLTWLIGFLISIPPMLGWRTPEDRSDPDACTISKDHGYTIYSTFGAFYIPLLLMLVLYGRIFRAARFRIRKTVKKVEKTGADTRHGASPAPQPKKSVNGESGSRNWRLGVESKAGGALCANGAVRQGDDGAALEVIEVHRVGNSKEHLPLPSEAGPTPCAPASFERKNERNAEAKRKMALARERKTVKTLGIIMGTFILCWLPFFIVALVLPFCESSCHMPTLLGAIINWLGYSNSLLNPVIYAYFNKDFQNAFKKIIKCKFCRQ

Estrogen receptor = biological target: T2, Estrogen receptor (Homo sapiens, UniProt P03372)
T2 sequence (P03372 whole entry): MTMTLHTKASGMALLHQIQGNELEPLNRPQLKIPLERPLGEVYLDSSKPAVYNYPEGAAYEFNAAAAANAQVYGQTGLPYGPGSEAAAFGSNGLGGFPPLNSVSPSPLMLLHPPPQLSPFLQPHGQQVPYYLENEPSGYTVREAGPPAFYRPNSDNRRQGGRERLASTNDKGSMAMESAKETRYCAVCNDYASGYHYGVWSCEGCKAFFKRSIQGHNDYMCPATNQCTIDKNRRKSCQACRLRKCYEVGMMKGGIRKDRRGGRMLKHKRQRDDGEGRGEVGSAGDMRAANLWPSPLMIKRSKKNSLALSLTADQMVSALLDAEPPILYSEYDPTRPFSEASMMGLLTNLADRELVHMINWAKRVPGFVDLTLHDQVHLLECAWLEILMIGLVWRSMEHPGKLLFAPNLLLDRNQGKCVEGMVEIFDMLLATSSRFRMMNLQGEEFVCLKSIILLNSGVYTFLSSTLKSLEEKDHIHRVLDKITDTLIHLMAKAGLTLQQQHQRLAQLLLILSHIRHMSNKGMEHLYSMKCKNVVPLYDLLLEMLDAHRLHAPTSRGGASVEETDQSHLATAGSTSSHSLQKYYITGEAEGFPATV

[2] = biological target: 3',5'-cyclic-AMP phosphodiesterase 4D (Homo sapiens, UniProt Q08499); assay type: functional
[3] = biological target: Beta-1 adrenergic receptor (Homo sapiens, UniProt P08588); assay type: functional
[4] = biological target: Gamma-aminobutyric acid receptor subunit alpha-1 (Rattus norvegicus, UniProt P62813); assay type: functional
[5] = biological target: T3, Alpha-2A adrenergic receptor (Homo sapiens, UniProt P08913); assay type: functional, cell-based
T3 sequence (P08913 whole entry): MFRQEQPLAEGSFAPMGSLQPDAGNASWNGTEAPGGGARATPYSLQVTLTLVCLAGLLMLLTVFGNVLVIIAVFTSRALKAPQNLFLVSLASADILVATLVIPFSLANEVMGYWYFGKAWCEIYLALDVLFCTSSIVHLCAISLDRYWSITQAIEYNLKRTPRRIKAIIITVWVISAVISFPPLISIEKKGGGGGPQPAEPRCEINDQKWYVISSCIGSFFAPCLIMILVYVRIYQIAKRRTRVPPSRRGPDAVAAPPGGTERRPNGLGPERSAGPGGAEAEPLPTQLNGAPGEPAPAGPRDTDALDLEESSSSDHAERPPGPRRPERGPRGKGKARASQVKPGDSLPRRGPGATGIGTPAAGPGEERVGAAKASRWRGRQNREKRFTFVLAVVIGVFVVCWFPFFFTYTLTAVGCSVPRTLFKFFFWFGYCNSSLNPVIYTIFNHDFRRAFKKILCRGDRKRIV

Vasopressin V1a receptor = Vasopressin V1a receptor (Homo sapiens, UniProt P37288)
B2 bradykinin receptor = biological target: T4, B2 bradykinin receptor (Homo sapiens, UniProt P30411)
T4 sequence (P30411 whole entry): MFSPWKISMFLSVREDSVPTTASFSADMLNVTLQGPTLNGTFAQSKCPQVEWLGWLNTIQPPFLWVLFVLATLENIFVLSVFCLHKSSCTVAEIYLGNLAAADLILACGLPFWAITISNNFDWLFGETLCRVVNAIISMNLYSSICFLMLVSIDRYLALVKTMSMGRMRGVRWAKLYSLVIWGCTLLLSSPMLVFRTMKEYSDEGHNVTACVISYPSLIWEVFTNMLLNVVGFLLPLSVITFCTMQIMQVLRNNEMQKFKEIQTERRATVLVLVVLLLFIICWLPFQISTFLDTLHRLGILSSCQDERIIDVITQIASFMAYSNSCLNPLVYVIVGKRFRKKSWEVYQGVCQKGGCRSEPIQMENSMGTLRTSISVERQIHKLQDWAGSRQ

[6] = biological target: Voltage-dependent L-type calcium channel subunit alpha-1C (Rattus norvegicus, UniProt P22002); assay type: functional
[7] = biological target: T5, 5-hydroxytryptamine receptor 2B (Homo sapiens, UniProt P41595); assay type: functional, cell-based
[8] = biological target: T5, 5-hydroxytryptamine receptor 2B; assay type: functional, cell-based; remark: listed apart in the source
Histamine H1 receptor = Histamine H1 receptor (Homo sapiens, UniProt P35367)
[9] = biological target: T6, Muscarinic acetylcholine receptor M2 (Homo sapiens, UniProt P08172); assay type: functional, cell-based
T6 sequence (P08172 whole entry): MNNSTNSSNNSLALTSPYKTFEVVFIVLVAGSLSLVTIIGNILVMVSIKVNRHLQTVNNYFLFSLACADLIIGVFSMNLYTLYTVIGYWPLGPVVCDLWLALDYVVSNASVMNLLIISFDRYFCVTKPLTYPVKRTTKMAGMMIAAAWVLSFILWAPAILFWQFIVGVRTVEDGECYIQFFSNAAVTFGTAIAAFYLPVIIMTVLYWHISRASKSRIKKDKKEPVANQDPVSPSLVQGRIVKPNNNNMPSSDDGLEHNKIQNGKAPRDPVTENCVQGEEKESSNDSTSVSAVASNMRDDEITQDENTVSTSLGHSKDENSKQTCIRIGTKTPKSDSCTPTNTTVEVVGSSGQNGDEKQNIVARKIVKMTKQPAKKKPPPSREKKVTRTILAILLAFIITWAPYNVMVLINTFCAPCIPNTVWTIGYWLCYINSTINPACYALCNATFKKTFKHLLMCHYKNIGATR
Further: assay procedure not described here.

Chain of Vasopressin V1a receptor (P37288 whole entry): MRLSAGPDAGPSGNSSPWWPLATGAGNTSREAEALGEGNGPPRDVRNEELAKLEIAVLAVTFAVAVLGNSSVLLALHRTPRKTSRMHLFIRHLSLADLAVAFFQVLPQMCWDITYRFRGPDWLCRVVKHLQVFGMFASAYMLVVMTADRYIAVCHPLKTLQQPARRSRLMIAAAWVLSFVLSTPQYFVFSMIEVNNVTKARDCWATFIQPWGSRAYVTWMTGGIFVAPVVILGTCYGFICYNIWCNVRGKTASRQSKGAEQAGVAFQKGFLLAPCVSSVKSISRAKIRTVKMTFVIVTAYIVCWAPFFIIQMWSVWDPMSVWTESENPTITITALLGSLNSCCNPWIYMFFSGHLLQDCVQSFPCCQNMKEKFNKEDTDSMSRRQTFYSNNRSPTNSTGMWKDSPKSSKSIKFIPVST
T5 sequence (P41595 whole entry): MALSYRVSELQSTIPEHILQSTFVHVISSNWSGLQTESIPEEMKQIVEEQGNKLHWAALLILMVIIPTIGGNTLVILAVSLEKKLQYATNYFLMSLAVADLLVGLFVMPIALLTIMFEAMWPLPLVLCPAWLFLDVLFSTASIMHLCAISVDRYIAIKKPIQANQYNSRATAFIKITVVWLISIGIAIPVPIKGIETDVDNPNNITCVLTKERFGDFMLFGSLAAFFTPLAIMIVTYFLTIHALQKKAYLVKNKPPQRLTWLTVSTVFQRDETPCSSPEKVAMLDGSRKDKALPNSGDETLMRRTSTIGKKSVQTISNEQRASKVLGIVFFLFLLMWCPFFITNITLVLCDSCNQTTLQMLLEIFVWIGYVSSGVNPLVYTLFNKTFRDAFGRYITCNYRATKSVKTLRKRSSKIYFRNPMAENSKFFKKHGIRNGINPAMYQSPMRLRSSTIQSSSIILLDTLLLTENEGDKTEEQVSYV
Chain of Cannabinoid receptor 1 (P21554 whole entry): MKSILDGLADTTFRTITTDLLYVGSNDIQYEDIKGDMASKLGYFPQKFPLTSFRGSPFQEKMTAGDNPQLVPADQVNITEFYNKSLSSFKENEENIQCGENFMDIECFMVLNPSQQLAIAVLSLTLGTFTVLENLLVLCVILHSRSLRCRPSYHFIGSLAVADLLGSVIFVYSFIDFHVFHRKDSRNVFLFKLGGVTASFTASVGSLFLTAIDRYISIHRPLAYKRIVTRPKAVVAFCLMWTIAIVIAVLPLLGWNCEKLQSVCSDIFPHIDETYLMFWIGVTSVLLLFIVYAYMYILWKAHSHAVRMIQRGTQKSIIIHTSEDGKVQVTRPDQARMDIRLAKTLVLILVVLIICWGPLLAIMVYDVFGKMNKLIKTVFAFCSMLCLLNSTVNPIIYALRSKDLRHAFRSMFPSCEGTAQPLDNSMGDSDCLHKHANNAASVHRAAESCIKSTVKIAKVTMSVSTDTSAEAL
Chain of Voltage-dependent L-type calcium channel subunit alpha-1C (P22002 whole entry): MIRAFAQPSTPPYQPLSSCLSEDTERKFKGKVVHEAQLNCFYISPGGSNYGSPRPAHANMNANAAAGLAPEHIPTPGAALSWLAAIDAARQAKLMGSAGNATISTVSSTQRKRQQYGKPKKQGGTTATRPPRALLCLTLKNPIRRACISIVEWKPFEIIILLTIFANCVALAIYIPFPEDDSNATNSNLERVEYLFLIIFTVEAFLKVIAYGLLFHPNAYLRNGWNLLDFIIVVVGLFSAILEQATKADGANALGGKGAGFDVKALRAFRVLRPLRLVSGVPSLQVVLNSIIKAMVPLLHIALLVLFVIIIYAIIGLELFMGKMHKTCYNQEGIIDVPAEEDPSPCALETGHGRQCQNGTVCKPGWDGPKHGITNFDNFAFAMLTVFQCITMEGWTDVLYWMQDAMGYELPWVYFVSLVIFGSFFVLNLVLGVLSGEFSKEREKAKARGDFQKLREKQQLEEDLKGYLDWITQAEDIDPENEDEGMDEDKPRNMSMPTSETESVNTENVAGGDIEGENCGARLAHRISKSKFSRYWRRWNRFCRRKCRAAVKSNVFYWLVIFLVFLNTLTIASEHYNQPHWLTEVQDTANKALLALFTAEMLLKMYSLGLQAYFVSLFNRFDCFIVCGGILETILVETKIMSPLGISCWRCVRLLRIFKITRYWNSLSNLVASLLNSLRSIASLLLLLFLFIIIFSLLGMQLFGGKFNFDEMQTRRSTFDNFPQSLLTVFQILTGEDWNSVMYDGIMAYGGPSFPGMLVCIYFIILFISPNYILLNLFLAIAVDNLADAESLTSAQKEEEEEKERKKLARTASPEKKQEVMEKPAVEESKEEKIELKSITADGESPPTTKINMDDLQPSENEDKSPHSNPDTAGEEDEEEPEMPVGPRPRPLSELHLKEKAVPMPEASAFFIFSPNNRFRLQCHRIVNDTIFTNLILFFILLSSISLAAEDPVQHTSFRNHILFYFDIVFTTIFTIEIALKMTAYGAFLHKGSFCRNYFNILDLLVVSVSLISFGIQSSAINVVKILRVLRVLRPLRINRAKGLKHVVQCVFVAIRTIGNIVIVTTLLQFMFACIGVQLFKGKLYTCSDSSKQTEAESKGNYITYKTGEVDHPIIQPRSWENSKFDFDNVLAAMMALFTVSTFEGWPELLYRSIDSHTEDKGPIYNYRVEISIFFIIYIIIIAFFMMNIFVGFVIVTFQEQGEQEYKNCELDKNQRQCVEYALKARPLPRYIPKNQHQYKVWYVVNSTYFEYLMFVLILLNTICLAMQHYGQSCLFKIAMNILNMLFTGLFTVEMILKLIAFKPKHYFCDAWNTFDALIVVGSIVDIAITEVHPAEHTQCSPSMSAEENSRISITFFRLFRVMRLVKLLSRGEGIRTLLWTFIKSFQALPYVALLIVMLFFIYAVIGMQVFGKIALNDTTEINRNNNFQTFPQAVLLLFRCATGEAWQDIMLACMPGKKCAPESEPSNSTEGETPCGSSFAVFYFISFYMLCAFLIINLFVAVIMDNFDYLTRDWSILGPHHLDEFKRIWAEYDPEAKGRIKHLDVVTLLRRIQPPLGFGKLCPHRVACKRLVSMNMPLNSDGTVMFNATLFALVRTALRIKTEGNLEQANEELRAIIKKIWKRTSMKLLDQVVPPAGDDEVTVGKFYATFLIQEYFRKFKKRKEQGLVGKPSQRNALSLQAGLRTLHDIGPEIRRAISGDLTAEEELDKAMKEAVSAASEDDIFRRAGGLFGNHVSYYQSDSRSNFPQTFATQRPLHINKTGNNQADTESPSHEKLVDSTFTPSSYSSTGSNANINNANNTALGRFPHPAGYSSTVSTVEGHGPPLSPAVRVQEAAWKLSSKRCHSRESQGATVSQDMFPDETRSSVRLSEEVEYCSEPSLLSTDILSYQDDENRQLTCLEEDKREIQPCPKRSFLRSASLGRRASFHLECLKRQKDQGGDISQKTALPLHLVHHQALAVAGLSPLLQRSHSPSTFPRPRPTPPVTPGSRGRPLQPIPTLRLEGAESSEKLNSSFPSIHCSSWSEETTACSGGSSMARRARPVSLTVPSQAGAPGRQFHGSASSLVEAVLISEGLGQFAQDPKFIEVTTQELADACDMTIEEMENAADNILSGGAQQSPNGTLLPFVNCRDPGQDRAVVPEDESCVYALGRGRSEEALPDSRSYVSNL
Chain of Histamine H1 receptor (P35367 whole entry): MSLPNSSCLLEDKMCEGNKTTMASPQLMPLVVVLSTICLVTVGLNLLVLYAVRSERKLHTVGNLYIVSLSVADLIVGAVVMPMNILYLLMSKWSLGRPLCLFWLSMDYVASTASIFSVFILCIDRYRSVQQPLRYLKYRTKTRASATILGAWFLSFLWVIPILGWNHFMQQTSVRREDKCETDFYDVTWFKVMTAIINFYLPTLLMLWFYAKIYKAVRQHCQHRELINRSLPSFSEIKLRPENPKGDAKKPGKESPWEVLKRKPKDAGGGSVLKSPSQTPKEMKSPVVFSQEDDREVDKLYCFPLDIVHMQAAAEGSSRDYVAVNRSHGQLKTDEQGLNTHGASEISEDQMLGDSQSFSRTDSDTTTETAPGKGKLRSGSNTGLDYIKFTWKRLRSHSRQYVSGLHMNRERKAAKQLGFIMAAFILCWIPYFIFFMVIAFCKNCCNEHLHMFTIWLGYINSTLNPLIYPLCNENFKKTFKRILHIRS
Chain of 3',5'-cyclic-AMP phosphodiesterase 4D (Q08499 whole entry): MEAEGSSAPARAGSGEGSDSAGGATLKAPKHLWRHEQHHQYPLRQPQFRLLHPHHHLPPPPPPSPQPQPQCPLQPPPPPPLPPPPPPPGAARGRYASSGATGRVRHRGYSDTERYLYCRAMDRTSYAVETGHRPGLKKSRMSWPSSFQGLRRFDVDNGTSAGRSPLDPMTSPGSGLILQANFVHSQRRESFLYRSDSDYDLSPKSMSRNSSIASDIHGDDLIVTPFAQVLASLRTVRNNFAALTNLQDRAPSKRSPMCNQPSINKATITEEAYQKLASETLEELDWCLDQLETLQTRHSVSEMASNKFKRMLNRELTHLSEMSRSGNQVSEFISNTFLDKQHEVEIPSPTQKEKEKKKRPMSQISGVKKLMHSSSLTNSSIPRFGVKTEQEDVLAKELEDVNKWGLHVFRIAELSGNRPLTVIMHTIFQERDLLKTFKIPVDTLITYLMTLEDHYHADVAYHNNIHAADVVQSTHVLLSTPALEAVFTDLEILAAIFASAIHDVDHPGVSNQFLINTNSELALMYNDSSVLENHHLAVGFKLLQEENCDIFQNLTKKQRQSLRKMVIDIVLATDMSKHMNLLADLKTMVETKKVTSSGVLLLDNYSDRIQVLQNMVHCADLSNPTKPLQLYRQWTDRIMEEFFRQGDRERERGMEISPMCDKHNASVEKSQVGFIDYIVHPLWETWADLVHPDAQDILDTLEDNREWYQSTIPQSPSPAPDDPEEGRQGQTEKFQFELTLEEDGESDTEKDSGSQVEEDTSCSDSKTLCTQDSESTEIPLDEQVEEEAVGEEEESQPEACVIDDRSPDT

Compound | AC50 (Cannabinoid receptor 1) [µM] | AC50 [1] [µM] | AC50 (Estrogen receptor) [µM] | AC50 [2] [µM] | AC50 [3] [µM] | AC50 [4] [µM] | AC50 [5] [µM] | AC50 (Vasopressin V1a receptor) [µM] | AC50 (B2 bradykinin receptor) [µM] | AC50 [6] [µM] | AC50 [7] [µM] | AC50 [8] [µM] | AC50 (Histamine H1 receptor) [µM] | AC50 [9] [µM]
O=C(C[S+]([O-])Cc1ccco1)NC/C=C\COc1cc(CN2CCCCC2)ccn1 (stereo not drawn) [LAFUTIDINE] | > 30 | > 30 | > 10 | > 30 | > 10 | > 10 | > 10 | > 10 | > 10 | > 10 | > 10 | > 10 | > 10 | > 10
C[C@H](N)C(=O)N[C@@H](CCC(N)=O)C(=O)O [ALANYL GLUTAMINE] (H-Ala-Gln-OH) | > 30 | > 30 | > 30 | > 30 | > 30 | > 30 | > 30 | > 30 | > 30 | > 30 | > 30 | > 30 | > 30 | > 30
CCN(CC)C(C)C(=O)c1ccccc1 (stereo not drawn) [DIETHYLPROPION] | > 30 | > 10 | > 30 | > 30 | > 10 | > 10 | > 10 | > 30 | > 30 | > 10 | > 10 | > 10 | 12 | > 10
CO/N=C(\C(=O)N[C@@H]1C(=O)N2C(C(=O)O)=C(CSc3nc(C)c(CC(=O)O)s3)CS[C@H]12)c1csc(N)n1 [CEFODIZIME] | > 30 | > 30 | > 30 | > 30 | > 30 | > 30 | > 30 | > 30 | > 30 | > 30 | > 30 | > 30 | > 30 | > 30
COc1ccc(C(Cl)=C(c2ccc(OC)cc2)c2ccc(OC)cc2)cc1 [CHLOROTRIANISENE] | > 30 | > 30 | 0.817 | > 30 | > 30 | > 30 | > 30 | > 30 | > 30 | > 10 | > 30 | > 30 | > 30 | > 30
C=C(c1ccccc1OCc1cccc(Cl)c1)n1ccnc1 [CROCONAZOLE] | 15 | > 10 | > 30 | 7.1 | > 30 | > 10 | > 10 | > 30 | > 30 | 18.8 | 8.5 | > 10 | > 10 | > 10
CCCCOC(=O)C(=O)Nc1cccc(-c2nnn[nH]2)c1 [TAZANOLAST] | > 30 | > 30 | > 30 | > 30 | > 30 | > 30 | > 30 | > 30 | > 30 | > 30 | > 30 | > 30 | > 30 | > 30
